# Laboratory results as given in the supplement of paper PMC11451515.
# Test system: SEM cells
# Experiment: cell viability relative to DMSO control; higher = less cytotoxic
# Conditions: 48 h
# In short: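 NOMO1, SEM and P12-Ichikawa leukemia cells spent at least four passages adapting to each medium before use. They were seeded at 500 cells/well (NOMO1, SEM) or 1000 cells/well (P12-Ichikawa) in 5 μl in 1536-well plates and pin-dosed with library compounds in DMSO at 11 threefold steps from 47 μM down to 0.79 nM. After 48 h at 37°C, CellTiter-Glo One luminescence was read. Viability is reported as a percentage of the DMSO wells on each plate, with cell-free wells as background.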
# [1] = HPLM + 10% dialyzed FBS, 0.000781 µM
# [2] = HPLM + 10% dialyzed FBS, 0.00234 µM
# [3] = HPLM + 10% dialyzed FBS, 0.00702 µM
# [4] = HPLM + 10% dialyzed FBS, 0.0211 µM
# [5] = HPLM + 10% dialyzed FBS, 0.0632 µM
# [6] = HPLM + 10% dialyzed FBS, 0.19 µM
# [7] = HPLM + 10% dialyzed FBS, 0.569 µM
# [8] = HPLM + 10% dialyzed FBS, 1.71 µM
# [9] = HPLM + 10% dialyzed FBS, 5.12 µM
# [10] = HPLM + 10% dialyzed FBS, 15.4 µM
# [11] = HPLM + 10% dialyzed FBS, 46.1 µM
# [12] = RPMI 5 mM glucose + 10% FBS, 0.000781 µM
# [13] = RPMI 5 mM glucose + 10% FBS, 0.00234 µM
# [14] = RPMI 5 mM glucose + 10% FBS, 0.00702 µM
# [15] = RPMI 5 mM glucose + 10% FBS, 0.0211 µM
# [16] = RPMI 5 mM glucose + 10% FBS, 0.0632 µM
# [17] = RPMI 5 mM glucose + 10% FBS, 0.19 µM
# [18] = RPMI 5 mM glucose + 10% FBS, 0.569 µM
# [19] = RPMI 5 mM glucose + 10% FBS, 1.71 µM
# [20] = RPMI 5 mM glucose + 10% FBS, 5.12 µM
# [21] = RPMI 5 mM glucose + 10% FBS, 15.4 µM
# [22] = RPMI 5 mM glucose + 10% FBS, 46.1 µM
# [23] = RPMI 5 mM glucose + 10% dialyzed FBS, 0.000781 µM
# [24] = RPMI 5 mM glucose + 10% dialyzed FBS, 0.00234 µM
# [25] = RPMI 5 mM glucose + 10% dialyzed FBS, 0.00702 µM
# [26] = RPMI 5 mM glucose + 10% dialyzed FBS, 0.0211 µM
# [27] = RPMI 5 mM glucose + 10% dialyzed FBS, 0.0632 µM
# [28] = RPMI 5 mM glucose + 10% dialyzed FBS, 0.19 µM
# [29] = RPMI 5 mM glucose + 10% dialyzed FBS, 0.569 µM
# [30] = RPMI 5 mM glucose + 10% dialyzed FBS, 1.71 µM
# [31] = RPMI 5 mM glucose + 10% dialyzed FBS, 5.12 µM
# [32] = RPMI 5 mM glucose + 10% dialyzed FBS, 15.4 µM
# [33] = RPMI 5 mM glucose + 10% dialyzed FBS, 46.1 µM
Structure (SMILES),cell viability [1] [%],cell viability [2] [%],cell viability [3] [%],cell viability [4] [%],cell viability [5] [%],cell viability [6] [%],cell viability [7] [%],cell viability [8] [%],cell viability [9] [%],cell viability [10] [%],cell viability [11] [%],cell viability [12] [%],cell viability [13] [%],cell viability [14] [%],cell viability [15] [%],cell viability [16] [%],cell viability [17] [%],cell viability [18] [%],cell viability [19] [%],cell viability [20] [%],cell viability [21] [%],cell viability [22] [%],cell viability [23] [%],cell viability [24] [%],cell viability [25] [%],cell viability [26] [%],cell viability [27] [%],cell viability [28] [%],cell viability [29] [%],cell viability [30] [%],cell viability [31] [%],cell viability [32] [%],cell viability [33] [%]
COC(=O)Nc1nc2ccc([S+]([O-])c3ccccc3)cc2[nH]1 (stereo not drawn),77.9,97.3,96.5,100,99.5,94.5,87.9,94.4,84,59.3,57.7,113,114,109,104,116,111,107,121,89.6,67.7,63,106,112,113,111,124,122,105,122,102,59.6,69.4
N#CC[C@H](C1CCCC1)n1cc(-c2ncnc3[nH]ccc23)cn1,100,104,103,103,94.1,85.9,103,90.1,63.7,39.6,24.5,103,111,86.6,108,109,96.1,92.7,107,50,23,19.8,98.9,97.7,98.1,97.9,113,99.6,96.8,87.3,63.3,31.6,26.3
O=C1N\C=N/C2=C1C=N[NH]2,74.3,77.4,74,95.1,70.6,90.7,77.2,22.6,93.8,94.5,41.9,70.2,79,69.4,90.4,62.5,91.7,81.2,20.2,81.6,88.8,71.8,74.8,86.2,81.4,104,79.1,99.2,82.1,32.9,96.1,86.7,47.4
Cc1ccc(-c2cc(C(F)(F)F)nn2-c2ccc([S+](N)(=O)[O-])cc2)cc1,112,113,106,125,119,126,121,122,106,109,91.3,84.8,109,110,110,126,122,122,102,102,105,83.9,120,121,126,127,120,123,120,111,117,140,87.4
OC[C@H]1OC(OC2=CC3=C(C(=C2)O)C(=O)\C(=C/O3)C4=CC=C(O)C=C4)[C@H](O)[C@@H](O)[C@@H]1O (stereo partly drawn),93.7,92.9,92,98.1,93,79.9,69.7,93.4,81.6,78.6,65.3,97.9,86.8,111,102,117,89.6,89,98,86.4,92.4,94.1,86.3,89.1,114,94.7,106,88.3,89.8,96.6,90.3,90.1,95.8
CC(C)c1c(C(=O)Nc2ccccc2)c(-c2ccccc2)c(-c2ccc(F)cc2)n1CC[C@@H](O)C[C@@H](O)CC(=O)[O-],108,117,103,113,112,102,93.2,104,99.8,75,69.9,81.9,92.3,110,120,103,86.3,98.3,97,88.6,70,45.1,99.6,109,104,106,93.4,68.5,104,97.8,93.3,80,60.9
